Test results: patent US5998437A, “Benzimidazole derivatives” (Otsuka Pharmaceutical Co., Ltd., priority 1995, dated 1999)

How the values were obtained:
[1] = test system: rat A10 cells; assay: Activity for inhibiting proliferation of rat A10 cells ([3H]-thymidine uptake); assay type: cell-based; conditions: A10, 1% FBS stimulation, 24 hours, read-out: Activity for inhibiting proliferation of rat A10 cells [IC50 (μM)]
Description: (2) Measurement of the Activity for Inhibiting Proliferation of Rat A10 Cells
(§1) Test was conducted by the modified method of N. Morisaki [Atherosclerosis, Vol. 71, (1988), pp. 165-171]. The rat A10 cells (purchased from Dainippon Pharmaceutical Co., Ltd.) were inoculated on a 24 wells immunoplate at a density of 10,000 cells/well, and were cultured in 10% FBS (fetal bovine serum) for 2 days, and in order to introduce the cells into the resting stage, the cells were further cultured in a serum-free medium for 2 days. After that, 1% FBS was added thereto for stimulating the proliferation, of the cells and at the same time, a test compound and 0.5 μCi/well of [^3 H]-thymidine were added. As to the index of synthesized amount of DNA, the quantity of [^3 H]-thymidine being uptaken by the cells was measured at the time of 24 hours after the final cultivation was started.

[2] = test system: human fibroblast; assay: Activity for inhibiting proliferation of the human fibroblast ([3H]-thymidine uptake); assay type: cell-based
Description: as §1
(3) Measurement of the Activity for Inhibiting Proliferation of the Human Fibroblast
Similar to the activity for inhibiting proliferation of rat A10 cells as mentioned above, the activity for inhibiting proliferation of the human fibroblast (purchased from Dainippon Pharmaceutical Co., Ltd.) was determined by measuring the uptake amount of [^3 H]-thymidine.

[3] = test system: T cells; assay: Activity for inhibiting proliferation of the T cells (mouse spleen cells, Concanavaline A); assay type: cell-based, Balb/c strain male mouse; conditions: T-cell, 2 days, then [3H] thymidine overnight
Description: (4) Measurement of the Activity for Inhibiting Proliferation of the T Cells
Test was conducted by the method as disclosed in "Current Protocol in Immunology" [Edited by Coligan, et al., (1991)] Chapter 3, page 12 (Published from Willy Interscience, Inc.). After sacrificed a Balb/c strain male mouse, the spleen was enucleated and a suspension of the spleen cells in RPMI-1640 culture medium was prepared. Said suspension was filtered through a nylon fiber mesh, and subjected to a centrifugal separation (1,200 rpm, for 5 minutes), there were added on pellet 5 ml of 0.15 M ammonium chloride, 10 mM potassium hydrogencarbonate, and 0.1 mM disodium salt of EDTA (pH 7.2) per one spleen so as to suspend the cells, and the suspension was incubated at 37° C. for 5 minutes. […] After counted the number of cells by using a hemacytometer, a suspension containing cell density of 10^6 /ml was prepared by diluting with RPMI-10 culture medium. […]
20 μCi/ml of [methyl-^3 H] thymidine was added in an amount of 10 μl/well, after further incubated overnight, by using a cell harvester the cells were recovered on the filter of the harvester. The filter was cut out from the cell harvester and put in a vial, then 5 ml of a scintillation cocktail (ACS-II) was added, and measured by using a liquid scintillation counter. […]

[4] = test system: TPA induced inflammation; assay: Activity for inhibiting TPA induced inflammation (ear pinna); assay type: in vivo, ICR strain female mouse; conditions: 1% solution, 20 μl on ear pinna 30 minutes before TPA; 4 hours after TPA coating
Description: (6) Determination of the Activity for Inhibiting TPA Induced Inflammation
Test was conducted by the modified method of Carlson, et al. [Agents Actions, Vol. 26, (1989), page 319]. Thus, to the ear pinna of ICR strain female mouse, 20 μl of acetone solution of 12-O-tetradecanoylphorbol-13-acetate (TPA) in the concentration of 200 μg/ml was coated to induce inflammation. The thickness of ear pinna of 4 hours after the TPA coating was measured, and difference of the last value was defined as the ear pinna inflammation. Test compound was dissolved in acetone-methanol (4:1 by v/v) to make the concentration of 1%. 20 μl of test compound solution was coated on the ear pinna 30 minutes before the TPA coating. By using compound of Example 3 as test compound, the inflammation was inhibited at the rate of 66%.

[5] = test system: rat mesangial cells; assay: Activity for inhibiting proliferation of rat mesangial cells (PDGF-BB, [3H]-thymidine uptake); assay type: cell-based; conditions: Mesangial cell, 5 ng/ml PDGF-BB, 0.5% FCS
Text: (7) Determination of the Activity for Inhibiting Proliferation of Rat Mesangial Cells
In accordance with the method of F. Jaffer, et al. [Am. J. Pathol., Vol. 135, (1989), pages 261-269], the mesangial cells were collected. Under anesthetized condition, the kidney of a rat was aseptically enucleated and the medulla renis was cut out, then the cortex renis was pressed to a sieve (120 mesh) made of stainless steel. The fraction of cortex renis passed through the sieve was put on another sieve of 200 mesh and washed with PBS (phosphate-buffered saline), the fraction being remained on the sieve was confirmed as the glomerulus. This fraction was cultured in RPMI 1640 medium [containing 15% of fetal calf serum (FCS), and 5 μg/ml of insulin] for 4 weeks. This fraction was further subcultured twice, and the remaining cells were thought of as the mesangial cells for use of this experiment.
Determination of the activity for inhibiting proliferation of rat mesangial cells was conducted in accordance with the method of M. B. Ganz, et al. [Am. […]
Thus 2×10^4 /ml of mesangial cells were inoculated on a culture plate (48 wells, each well having the capacity of 0.5 ml), and cultured with RPMI medium (containing 15% FCS) for 3 days. […] The supernatant of the culture medium was taken up, and the amount of [^3 H]-thymidine up-taken into the cells was measured by use of scintillation counter.

Molecule `O=C(Nc1ccc2c(ccn2CCCn2ccnc2)c1)c1nc2ccc(Cl)cc2n1Cc1ccccc1` [Example 3, 1-benzyl-6-chloro-2-{1-[3-(imidazol-1-yl)propyl]indol-5-ylamino-carbonyl}benzimidazole] has an IC50 [1] of 0.5 µM, an IC50 [2] of 40 nM and an IC50 [3] of 2000 nM. The “Inhibition rate of TPA induced inflammation” value [4] was 66% and the IC50 [5] was 790 nM.
